{"source": "patent US20250340886A1", "about": "“INTRACELLULAR KINASE ASSOCIATED WITH RESISTANCE AGAINST ANTI-TUMOUR IMMUNE RESPONSES, AND USES THEREOF” (iOmx Therapeutics AG, priority 2017, published 2025)", "experiment_in_all_cases": "radiometric protein kinase assay (33PanQinase Activity Assay, ProQinase Free Choice Kinase Assay)", "format_in_all_cases": "biochemical", "key": {"SIK3": {"biological_target": "SIK3 (Homo sapiens (Human), UniProt Q9Y2K2)", "sequence (Q9Y2K2 whole entry)": "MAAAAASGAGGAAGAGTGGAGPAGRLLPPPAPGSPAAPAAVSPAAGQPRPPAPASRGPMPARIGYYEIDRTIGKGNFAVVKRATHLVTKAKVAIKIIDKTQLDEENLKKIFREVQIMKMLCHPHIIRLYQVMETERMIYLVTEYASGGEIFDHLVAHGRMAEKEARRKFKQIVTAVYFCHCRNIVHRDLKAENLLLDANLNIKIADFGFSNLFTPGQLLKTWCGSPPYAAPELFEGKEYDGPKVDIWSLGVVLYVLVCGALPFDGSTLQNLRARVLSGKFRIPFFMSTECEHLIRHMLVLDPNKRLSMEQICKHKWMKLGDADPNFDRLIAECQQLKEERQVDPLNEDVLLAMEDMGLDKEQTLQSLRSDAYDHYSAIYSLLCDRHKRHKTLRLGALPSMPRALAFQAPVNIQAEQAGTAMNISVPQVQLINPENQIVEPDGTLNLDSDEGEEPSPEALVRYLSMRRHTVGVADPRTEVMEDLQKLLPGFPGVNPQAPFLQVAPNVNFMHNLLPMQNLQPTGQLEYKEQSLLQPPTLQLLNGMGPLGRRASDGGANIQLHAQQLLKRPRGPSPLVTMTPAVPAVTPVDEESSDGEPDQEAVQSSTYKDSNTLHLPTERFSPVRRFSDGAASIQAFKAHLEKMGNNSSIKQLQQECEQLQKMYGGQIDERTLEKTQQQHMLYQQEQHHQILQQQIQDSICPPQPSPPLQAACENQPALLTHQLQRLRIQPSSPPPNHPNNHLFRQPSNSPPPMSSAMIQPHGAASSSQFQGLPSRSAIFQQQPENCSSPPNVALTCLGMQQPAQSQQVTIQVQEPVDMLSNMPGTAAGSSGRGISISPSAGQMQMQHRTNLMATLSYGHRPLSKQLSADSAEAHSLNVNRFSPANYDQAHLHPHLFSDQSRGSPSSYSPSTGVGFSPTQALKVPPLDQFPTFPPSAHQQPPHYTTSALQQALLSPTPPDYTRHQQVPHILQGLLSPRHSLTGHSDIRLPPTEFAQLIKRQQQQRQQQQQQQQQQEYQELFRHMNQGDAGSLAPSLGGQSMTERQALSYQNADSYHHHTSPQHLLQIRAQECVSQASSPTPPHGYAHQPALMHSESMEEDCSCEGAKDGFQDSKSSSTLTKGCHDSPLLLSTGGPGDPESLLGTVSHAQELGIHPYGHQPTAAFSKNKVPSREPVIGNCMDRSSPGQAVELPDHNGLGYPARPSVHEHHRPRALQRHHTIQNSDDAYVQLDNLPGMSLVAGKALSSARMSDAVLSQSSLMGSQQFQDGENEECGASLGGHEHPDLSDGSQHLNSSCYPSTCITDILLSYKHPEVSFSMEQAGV", "conditions": "read-out: SIK3 IC50 rank"}, "SIK2": {"biological_target": "SIK2 (Homo sapiens (Human), UniProt Q9H0K1)", "sequence (Q9H0K1 whole entry)": "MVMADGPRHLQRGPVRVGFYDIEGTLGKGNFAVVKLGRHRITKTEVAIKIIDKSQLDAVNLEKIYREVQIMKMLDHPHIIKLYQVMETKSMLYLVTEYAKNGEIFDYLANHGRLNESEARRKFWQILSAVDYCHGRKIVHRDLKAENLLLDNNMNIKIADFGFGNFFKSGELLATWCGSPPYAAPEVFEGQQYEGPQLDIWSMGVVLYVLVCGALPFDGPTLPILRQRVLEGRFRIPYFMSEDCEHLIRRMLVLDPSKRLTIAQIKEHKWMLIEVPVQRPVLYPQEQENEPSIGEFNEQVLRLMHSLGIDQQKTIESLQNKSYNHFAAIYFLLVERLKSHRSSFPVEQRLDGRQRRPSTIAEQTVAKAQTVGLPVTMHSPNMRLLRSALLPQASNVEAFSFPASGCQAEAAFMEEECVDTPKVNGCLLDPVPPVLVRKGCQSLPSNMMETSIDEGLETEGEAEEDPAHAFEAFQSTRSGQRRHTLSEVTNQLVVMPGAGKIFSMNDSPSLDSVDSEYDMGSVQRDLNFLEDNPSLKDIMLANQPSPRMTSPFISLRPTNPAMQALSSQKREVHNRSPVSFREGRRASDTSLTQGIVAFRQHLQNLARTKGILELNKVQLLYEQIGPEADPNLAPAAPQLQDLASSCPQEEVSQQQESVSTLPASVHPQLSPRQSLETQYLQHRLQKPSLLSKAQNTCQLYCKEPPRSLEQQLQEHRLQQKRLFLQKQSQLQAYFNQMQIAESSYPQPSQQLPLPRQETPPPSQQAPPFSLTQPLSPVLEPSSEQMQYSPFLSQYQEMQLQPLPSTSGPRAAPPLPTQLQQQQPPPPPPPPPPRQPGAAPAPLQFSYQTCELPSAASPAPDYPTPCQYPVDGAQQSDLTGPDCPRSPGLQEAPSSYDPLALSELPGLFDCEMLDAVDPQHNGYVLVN", "conditions": "ATP 1.0 uM, read-out: SIK2 IC50 rank"}, "SIK1": {"biological_target": "SIK1 (Homo sapiens (Human), UniProt P57059)", "sequence (P57059 whole entry)": "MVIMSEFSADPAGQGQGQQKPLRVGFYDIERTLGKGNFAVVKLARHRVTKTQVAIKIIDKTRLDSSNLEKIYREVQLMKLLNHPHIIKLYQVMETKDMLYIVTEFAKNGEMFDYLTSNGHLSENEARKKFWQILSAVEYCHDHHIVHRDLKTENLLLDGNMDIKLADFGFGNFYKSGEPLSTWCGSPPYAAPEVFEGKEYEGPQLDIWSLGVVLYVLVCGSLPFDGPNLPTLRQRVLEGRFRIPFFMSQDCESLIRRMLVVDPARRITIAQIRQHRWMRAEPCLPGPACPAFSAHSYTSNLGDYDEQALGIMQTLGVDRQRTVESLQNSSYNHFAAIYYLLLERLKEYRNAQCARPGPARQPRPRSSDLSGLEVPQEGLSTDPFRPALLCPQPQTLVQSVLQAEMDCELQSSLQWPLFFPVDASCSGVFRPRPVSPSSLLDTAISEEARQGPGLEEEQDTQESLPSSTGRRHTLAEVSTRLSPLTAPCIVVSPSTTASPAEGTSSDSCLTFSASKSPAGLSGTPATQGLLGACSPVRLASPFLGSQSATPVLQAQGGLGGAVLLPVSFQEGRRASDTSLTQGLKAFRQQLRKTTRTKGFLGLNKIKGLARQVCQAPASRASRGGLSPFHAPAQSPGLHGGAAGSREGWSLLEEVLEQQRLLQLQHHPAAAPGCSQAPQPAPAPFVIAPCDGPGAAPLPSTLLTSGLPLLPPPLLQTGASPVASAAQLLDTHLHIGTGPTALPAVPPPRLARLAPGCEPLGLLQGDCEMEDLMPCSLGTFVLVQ", "conditions": "read-out: SIK1 IC50 rank"}, "ABL1 wt": {"biological_target": "ABL1 wt (Homo sapiens (Human), UniProt P00519)", "sequence (P00519 whole entry)": "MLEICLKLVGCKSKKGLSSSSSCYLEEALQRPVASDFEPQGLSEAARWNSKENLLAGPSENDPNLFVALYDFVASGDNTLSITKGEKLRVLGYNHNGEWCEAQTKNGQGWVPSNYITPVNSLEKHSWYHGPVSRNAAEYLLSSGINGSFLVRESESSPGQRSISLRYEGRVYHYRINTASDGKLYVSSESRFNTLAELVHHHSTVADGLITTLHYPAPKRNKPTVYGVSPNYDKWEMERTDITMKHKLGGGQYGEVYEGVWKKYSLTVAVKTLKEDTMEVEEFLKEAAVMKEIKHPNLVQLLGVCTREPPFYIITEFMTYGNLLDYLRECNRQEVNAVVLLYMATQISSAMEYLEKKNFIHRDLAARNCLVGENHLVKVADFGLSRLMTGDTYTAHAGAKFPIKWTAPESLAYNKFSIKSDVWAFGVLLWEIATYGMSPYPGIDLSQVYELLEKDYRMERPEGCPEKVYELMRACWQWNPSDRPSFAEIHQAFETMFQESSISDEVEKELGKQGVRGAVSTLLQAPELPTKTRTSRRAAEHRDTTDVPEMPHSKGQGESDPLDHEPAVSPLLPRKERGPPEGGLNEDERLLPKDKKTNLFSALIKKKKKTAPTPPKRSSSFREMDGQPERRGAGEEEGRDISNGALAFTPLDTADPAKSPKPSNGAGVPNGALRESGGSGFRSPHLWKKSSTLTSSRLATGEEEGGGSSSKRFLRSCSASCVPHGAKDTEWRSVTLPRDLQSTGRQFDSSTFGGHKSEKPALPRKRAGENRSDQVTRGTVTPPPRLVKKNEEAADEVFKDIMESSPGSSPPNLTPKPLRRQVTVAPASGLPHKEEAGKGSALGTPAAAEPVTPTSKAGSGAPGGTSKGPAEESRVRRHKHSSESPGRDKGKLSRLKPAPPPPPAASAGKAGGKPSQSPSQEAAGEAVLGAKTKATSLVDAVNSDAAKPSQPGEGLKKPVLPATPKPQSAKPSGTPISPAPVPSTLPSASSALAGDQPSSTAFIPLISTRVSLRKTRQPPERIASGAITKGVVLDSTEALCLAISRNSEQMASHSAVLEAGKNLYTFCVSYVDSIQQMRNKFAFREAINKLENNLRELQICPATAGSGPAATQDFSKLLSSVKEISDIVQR", "conditions": "indicative IC50, Table 4; ATP 0.3 uM; read-out: ABL1 IC50 rank"}, "SRC (GST-HIS-tag)": {"biological_target": "SRC (GST-HIS-tag) (Homo sapiens (Human), UniProt P12931)", "sequence (P12931 whole entry, looked up)": "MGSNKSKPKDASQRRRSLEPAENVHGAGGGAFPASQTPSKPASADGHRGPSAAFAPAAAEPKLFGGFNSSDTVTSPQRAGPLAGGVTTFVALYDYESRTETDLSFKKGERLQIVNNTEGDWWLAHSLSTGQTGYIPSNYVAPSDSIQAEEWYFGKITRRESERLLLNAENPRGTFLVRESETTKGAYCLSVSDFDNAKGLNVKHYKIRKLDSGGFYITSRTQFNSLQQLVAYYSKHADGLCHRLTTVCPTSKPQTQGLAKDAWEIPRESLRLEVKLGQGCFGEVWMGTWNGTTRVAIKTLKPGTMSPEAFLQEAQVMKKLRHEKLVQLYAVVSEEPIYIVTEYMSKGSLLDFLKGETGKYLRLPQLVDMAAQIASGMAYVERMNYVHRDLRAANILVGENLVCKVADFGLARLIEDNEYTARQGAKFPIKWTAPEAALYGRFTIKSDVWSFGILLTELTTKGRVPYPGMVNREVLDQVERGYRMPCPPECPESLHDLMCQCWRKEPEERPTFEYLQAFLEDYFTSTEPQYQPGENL", "conditions": "indicative IC50, Table 4; ATP 0.3 uM; read-out: SRC IC50 rank"}, "[1]": {"conditions": "indicative IC50, Table 2A, ATP 1.0 uM"}, "[2]": {"conditions": "indicative IC50, Table 2A, ATP 3.0 uM"}, "[3]": {"conditions": "indicative IC50, Table 4, ATP 1.0 uM"}, "[4]": {"conditions": "indicative IC50, Table 4, ATP 3.0 uM"}}, "note": "Read-outs that look alike come from different tables or passages of the source."}
{"compound": "Cc1nc(Nc2ncc(C(=O)Nc3c(F)cccc3Br)s2)cc(N2CCN(CCO)CC2)n1", "note": "[Compound A3, N-(2-bromo-6-fluorophenyl)-2-((6-(4-(2-hydroxyethyl)piperazin-1-yl)-2-methylpyrimidin-4-yl)amino)thiazole-5-carboxamide]", "values": [{"measurement": "IC50", "setting": "SIK3; [1]", "value": "< 100", "unit": "nM"}, {"measurement": "IC50", "setting": "SIK2; indicative IC50, Table 2A", "value": "< 100", "unit": "nM"}, {"measurement": "IC50", "setting": "SIK1; [2]", "value": "< 100", "unit": "nM"}]}
{"compound": "Cc1nc(Nc2ncc(C(=O)Nc3c(Cl)cccc3Br)s2)cc(N2CCN(CCO)CC2)n1", "note": "[Compound B1, N-(2-bromo-6-chlorophenyl)-2-((6-(4-(2-hydroxyethyl)piperazin-1-yl)-2-methylpyrimidin-4-yl)amino)thiazole-5-carboxamide]", "values": [{"measurement": "IC50", "setting": "SIK3; [3]", "value": "< 100", "unit": "nM"}, {"measurement": "IC50", "setting": "ABL1 wt", "value": "< 100", "unit": "nM"}, {"measurement": "IC50", "setting": "SIK2; indicative IC50, Table 4", "value": "< 100", "unit": "nM"}, {"measurement": "IC50", "setting": "SIK1; [4]", "value": "< 100", "unit": "nM"}, {"measurement": "IC50", "setting": "SRC (GST-HIS-tag)", "value": "< 100", "unit": "nM"}]}
{"compound": "Cc1nc(Nc2ncc(C(=O)Nc3ccccc3Cl)s2)cc(N2CCN(CCO)CC2)n1", "note": "[Compound A10, N-(2-chlorophenyl)-2-((6-(4-(2-hydroxyethyl)piperazin-1-yl)-2-methylpyrimidin-4-yl)amino)thiazole-5-carboxamide]", "values": [{"measurement": "IC50", "setting": "SIK3; [1]", "value": "> 100", "unit": "nM"}, {"measurement": "IC50", "setting": "SIK2; indicative IC50, Table 2A", "value": "< 100", "unit": "nM"}, {"measurement": "IC50", "setting": "SIK1; [2]", "value": "< 100", "unit": "nM"}]}
{"compound": "Cc1nc(NCCO)cc(Nc2ncc(C(=O)Nc3c(C)cccc3Cl)s2)n1", "note": "[Compound B7, N-(2-chloro-6-methylphenyl)-2-((6-((2-hydroxyethyl)amino)-2-methylpyrimidin-4-yl)amino)thiazole-5-carboxamide]", "values": [{"measurement": "IC50", "setting": "SIK3; [3]", "value": "< 100", "unit": "nM"}, {"measurement": "IC50", "setting": "ABL1 wt", "value": "< 100", "unit": "nM"}, {"measurement": "IC50", "setting": "SIK2; indicative IC50, Table 4", "value": "< 100", "unit": "nM"}, {"measurement": "IC50", "setting": "SIK1; [4]", "value": "< 100", "unit": "nM"}, {"measurement": "IC50", "setting": "SRC (GST-HIS-tag)", "value": "< 100", "unit": "nM"}]}
{"compound": "Cc1nc(Nc2ncc(C(=O)Nc3c(C)cccc3C)s2)cc(N2CCN(CCO)CC2)n1", "note": "[Compound A12, N-(2,6-dimethylphenyl)-2-((6-(4-(2-hydroxyethyl)piperazin-1-yl)-2-methylpyrimidin-4-yl)amino)thiazole-5-carboxamide]", "values": [{"measurement": "IC50", "setting": "SIK3; [1]", "value": "< 100", "unit": "nM"}, {"measurement": "IC50", "setting": "SIK2; indicative IC50, Table 2A", "value": "< 100", "unit": "nM"}, {"measurement": "IC50", "setting": "SIK1; [2]", "value": "< 100", "unit": "nM"}]}
{"compound": "C#Cc1cccc(NC(=O)c2cnc(Nc3cc(N4CCN(CCO)CC4)nc(C)n3)s2)c1", "note": "[Compound A4, N-(3-ethynylphenyl)-2-((6-(4-(2-hydroxyethyl)piperazin-1-yl)-2-methylpyrimidin-4-yl)amino)thiazole-5-carboxamide]", "values": [{"measurement": "IC50", "setting": "SIK3; [1]", "value": "> 1000", "unit": "nM"}, {"measurement": "IC50", "setting": "SIK2; indicative IC50, Table 2A", "value": "> 100", "unit": "nM"}, {"measurement": "IC50", "setting": "SIK1; [2]", "value": "> 1000", "unit": "nM"}]}
{"compound": "Cc1nc(Nc2ncc(C(=O)Nc3ccccc3C)s2)cc(N2CCN(CCO)CC2)n1", "note": "[Compound A9, 2-((6-(4-(2-hydroxyethyl)piperazin-1-yl)-2-methylpyrimidin-4-yl)amino)-N-(o-tolyl)thiazole-5-carboxamide]", "values": [{"measurement": "IC50", "setting": "SIK3; [1]", "value": "< 100", "unit": "nM"}, {"measurement": "IC50", "setting": "SIK2; indicative IC50, Table 2A", "value": "< 100", "unit": "nM"}, {"measurement": "IC50", "setting": "SIK1; [2]", "value": "< 100", "unit": "nM"}]}
{"compound": "Cc1nc(Nc2ncc(C(=O)Nc3c(Br)cccc3Br)s2)cc(N2CCN(CCO)CC2)n1", "note": "[Compound B2, N-(2,6-dibromophenyl)-2-((6-(4-(2-hydroxyethyl)piperazin-1-yl)-2-methylpyrimidin-4-yl)amino)thiazole-5-carboxamide]", "values": [{"measurement": "IC50", "setting": "SIK3; [3]", "value": "> 100", "unit": "nM"}, {"measurement": "IC50", "setting": "ABL1 wt", "value": "< 100", "unit": "nM"}, {"measurement": "IC50", "setting": "SIK2; indicative IC50, Table 4", "value": "< 100", "unit": "nM"}, {"measurement": "IC50", "setting": "SIK1; [4]", "value": "< 100", "unit": "nM"}, {"measurement": "IC50", "setting": "SRC (GST-HIS-tag)", "value": "< 100", "unit": "nM"}]}
{"compound": "Cc1nc(Nc2ncc(C(=O)Nc3ccc(F)c(Cl)c3)s2)cc(N2CCN(CCO)CC2)n1", "note": "[Compound B9]", "values": [{"measurement": "IC50", "setting": "SIK3", "value": "> 5000", "unit": "nM"}, {"measurement": "IC50", "setting": "SIK2; indicative IC50, Table 4", "value": "> 500", "unit": "nM"}, {"measurement": "IC50", "setting": "SIK1", "value": "> 5000", "unit": "nM"}]}
{"compound": "Cc1nc(Nc2ncc(C(=O)Nc3ccc(Br)cc3F)s2)cc(N2CCN(CCO)CC2)n1", "note": "[Compound A7, N-(4-bromo-6-fluorophenyl)-2-((6-(4-(2-hydroxyethyl)piperazin-1-yl)-2-methylpyrimidin-4-yl)amino)thiazole-5-carboxamide]", "values": [{"measurement": "IC50", "setting": "SIK3; [1]", "value": "> 500", "unit": "nM"}, {"measurement": "IC50", "setting": "SIK2; indicative IC50, Table 2A", "value": "> 100", "unit": "nM"}, {"measurement": "IC50", "setting": "SIK1; [2]", "value": "< 100", "unit": "nM"}]}
{"compound": "Cc1nc(Nc2ncc(C(=O)Nc3c(C)cccc3Cl)s2)cc(N2CCN(C)CC2)n1", "note": "[Compound B5, N-(2-chloro-6-methylphenyl)-2-((2-methyl-6-(4-methylpiperazin-1-yl)pyrimidin-4-yl)amino)thiazole-5-carboxamide]", "values": [{"measurement": "IC50", "setting": "SIK3; [3]", "value": "< 100", "unit": "nM"}, {"measurement": "IC50", "setting": "ABL1 wt", "value": "< 100", "unit": "nM"}, {"measurement": "IC50", "setting": "SIK2; indicative IC50, Table 4", "value": "< 100", "unit": "nM"}, {"measurement": "IC50", "setting": "SIK1; [4]", "value": "< 100", "unit": "nM"}, {"measurement": "IC50", "setting": "SRC (GST-HIS-tag)", "value": "< 100", "unit": "nM"}]}
{"compound": "Cc1nc(Nc2ncc(C(=O)Nc3c(F)cccc3F)s2)cc(N2CCN(CCO)CC2)n1", "note": "[Compound A2, N-(2,6-difluorophenyl)-2-((6-{4-(2-hydroxyethyl)piperazin-1-yl)-2-methylpyrimidin-4-yl)amino)thiazole-5-carboxamide]", "values": [{"measurement": "IC50", "setting": "SIK3; [1]", "value": "< 100", "unit": "nM"}, {"measurement": "IC50", "setting": "SIK2; indicative IC50, Table 2A", "value": "< 100", "unit": "nM"}, {"measurement": "IC50", "setting": "SIK1; [2]", "value": "< 100", "unit": "nM"}]}
{"compound": "CC(=O)N1CCN(c2cc(Nc3ncc(C(=O)Nc4c(C)cccc4Cl)s3)nc(C)n2)CC1", "note": "[Compound B6, 2-((6-(4-acetylpiperazin-1-yl)-2-methylpyrimidin-4-yl)amino)-N-(2-chloro-6-methylphenyl)thiazole-5-carboxamide]", "values": [{"measurement": "IC50", "setting": "SIK3; [3]", "value": "< 100", "unit": "nM"}, {"measurement": "IC50", "setting": "ABL1 wt", "value": "< 100", "unit": "nM"}, {"measurement": "IC50", "setting": "SIK2; indicative IC50, Table 4", "value": "< 100", "unit": "nM"}, {"measurement": "IC50", "setting": "SIK1; [4]", "value": "< 100", "unit": "nM"}, {"measurement": "IC50", "setting": "SRC (GST-HIS-tag)", "value": "< 100", "unit": "nM"}]}
{"compound": "Cc1nc(Nc2ncc(C(=O)Nc3ccc(F)cc3)s2)cc(N2CCN(CCO)CC2)n1", "note": "[Compound A5, N-(4-fluorophenyl)-2-((6-(4-(2-hydroxyethyl)piperazin-1-yl)-2-methylpyrimidin-4-yl)amino)thiazole-5-carboxamide]", "values": [{"measurement": "IC50", "setting": "SIK3; [1]", "value": "> 1000", "unit": "nM"}, {"measurement": "IC50", "setting": "SIK2; indicative IC50, Table 2A", "value": "> 100", "unit": "nM"}, {"measurement": "IC50", "setting": "SIK1; [2]", "value": "> 100", "unit": "nM"}]}
{"compound": "Cc1nc(Nc2ncc(C(=O)Nc3c(Cl)cccc3Cl)s2)cc(N2CCN(CCO)CC2)n1", "note": "[Compound A13, N-(2,6-dichlorophenyl)-2-((6-(4-(2-hydroxyethyl)piperazin-1-yl)-2-methylpyrimidin-4-yl)amino)thiazole-5-carboxamide]", "values": [{"measurement": "IC50", "setting": "SIK3; [1]", "value": "< 100", "unit": "nM"}, {"measurement": "IC50", "setting": "SIK2; indicative IC50, Table 2A", "value": "< 100", "unit": "nM"}, {"measurement": "IC50", "setting": "SIK1; [2]", "value": "< 100", "unit": "nM"}]}
{"compound": "Cc1nc(Nc2ncc(C(=O)Nc3c(F)cccc3Cl)s2)cc(N2CCN(CCO)CC2)n1", "note": "[Compound A1, N-(2-chloro-6-fluorophenyl)-2-((6-(4-(2-hydroxyethyl)piperazin-1-yl)-2-methylpyrimidin-4-yl)amino)thiazole-5-carboxamide]", "values": [{"measurement": "IC50", "setting": "SIK3; [1]", "value": "< 100", "unit": "nM"}, {"measurement": "IC50", "setting": "SIK2; indicative IC50, Table 2A", "value": "< 100", "unit": "nM"}, {"measurement": "IC50", "setting": "SIK1; [2]", "value": "< 100", "unit": "nM"}]}
{"compound": "COc1c(F)cccc1NC(=O)c1cnc(Nc2cc(N3CCN(CCO)CC3)nc(C)n2)s1", "note": "[Compound B4, N-(3-fluoro-2-methoxyphenyl)-2-((6-(4-(2-hydroxyethyl)piperazin-1-yl)-2-methylpyrimidin-4-yl)amino)thiazole-5-carboxamide]", "values": [{"measurement": "IC50", "setting": "SIK3; [3]", "value": "> 1000", "unit": "nM"}, {"measurement": "IC50", "setting": "ABL1 wt", "value": "< 100", "unit": "nM"}, {"measurement": "IC50", "setting": "SIK2; indicative IC50, Table 4", "value": "> 100", "unit": "nM"}, {"measurement": "IC50", "setting": "SIK1; [4]", "value": "> 100", "unit": "nM"}, {"measurement": "IC50", "setting": "SRC (GST-HIS-tag)", "value": "< 100", "unit": "nM"}]}
